Assay results from ChEMBL document CHEMBL3044919 (Med Chem Res, 2005).
pKi: −log10 of the molar value.

What was measured:
[1] = biological target: Sigma non-opioid intracellular receptor 1 (Cavia porcellus, UniProt Q60492); test: Displacement of [3H](+)pentazocine from sigma-1 receptor in Cavia porcellus (guinea pig) brain membranes; design: species or system Membrane
[2] = Displacement of [3H]DTG from sigma-1 receptor in Cavia porcellus (guinea pig) brain membranes; design: species or system Membrane
Cavia porcellus = species: Cavia porcellus; test: Selectivity ratio of Ki for sigma-2 receptor in Cavia porcellus (guinea pig) brain membranes to Ki for sigma-1 receptor in Cavia porcellus (guinea pig) brain membranes
Histamine H1 receptor = Histamine H1 receptor (Homo sapiens, UniProt P35367); test: Binding affinity to histamine H1 (unknown origin)
Histamine H1 receptor, sequence (P35367 whole entry): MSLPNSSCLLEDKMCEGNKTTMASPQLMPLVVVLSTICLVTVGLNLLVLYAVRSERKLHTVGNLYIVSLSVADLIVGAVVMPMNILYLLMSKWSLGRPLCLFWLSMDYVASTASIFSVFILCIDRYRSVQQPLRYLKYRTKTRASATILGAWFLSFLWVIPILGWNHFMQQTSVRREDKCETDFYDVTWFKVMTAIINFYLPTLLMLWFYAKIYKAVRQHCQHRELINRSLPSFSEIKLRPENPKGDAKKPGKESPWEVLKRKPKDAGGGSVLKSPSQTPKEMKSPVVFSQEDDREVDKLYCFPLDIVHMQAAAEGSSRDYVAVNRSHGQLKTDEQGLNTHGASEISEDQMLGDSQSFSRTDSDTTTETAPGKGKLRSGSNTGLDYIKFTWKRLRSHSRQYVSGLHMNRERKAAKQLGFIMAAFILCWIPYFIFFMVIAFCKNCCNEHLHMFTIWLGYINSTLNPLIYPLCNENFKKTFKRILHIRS

[3] = biological target: T1, Adrenergic receptor alpha-2 (Homo sapiens, UniProt P08913+P18825+P18089); test: Binding affinity to alpha2 receptor (unknown origin)
T1 sequence (P08913 whole entry): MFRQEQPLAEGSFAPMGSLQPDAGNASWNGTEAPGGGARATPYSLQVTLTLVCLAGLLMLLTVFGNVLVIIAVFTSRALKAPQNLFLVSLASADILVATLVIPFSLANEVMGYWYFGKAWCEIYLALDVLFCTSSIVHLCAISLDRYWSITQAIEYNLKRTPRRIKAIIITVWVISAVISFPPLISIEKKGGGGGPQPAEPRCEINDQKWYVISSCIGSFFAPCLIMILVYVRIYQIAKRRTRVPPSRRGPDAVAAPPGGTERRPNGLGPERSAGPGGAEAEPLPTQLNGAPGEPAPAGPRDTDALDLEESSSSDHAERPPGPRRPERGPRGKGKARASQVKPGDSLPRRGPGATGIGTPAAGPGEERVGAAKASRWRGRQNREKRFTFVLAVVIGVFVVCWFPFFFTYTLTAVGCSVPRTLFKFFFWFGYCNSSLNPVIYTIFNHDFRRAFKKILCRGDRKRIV
T1 sequence (P18825 whole entry): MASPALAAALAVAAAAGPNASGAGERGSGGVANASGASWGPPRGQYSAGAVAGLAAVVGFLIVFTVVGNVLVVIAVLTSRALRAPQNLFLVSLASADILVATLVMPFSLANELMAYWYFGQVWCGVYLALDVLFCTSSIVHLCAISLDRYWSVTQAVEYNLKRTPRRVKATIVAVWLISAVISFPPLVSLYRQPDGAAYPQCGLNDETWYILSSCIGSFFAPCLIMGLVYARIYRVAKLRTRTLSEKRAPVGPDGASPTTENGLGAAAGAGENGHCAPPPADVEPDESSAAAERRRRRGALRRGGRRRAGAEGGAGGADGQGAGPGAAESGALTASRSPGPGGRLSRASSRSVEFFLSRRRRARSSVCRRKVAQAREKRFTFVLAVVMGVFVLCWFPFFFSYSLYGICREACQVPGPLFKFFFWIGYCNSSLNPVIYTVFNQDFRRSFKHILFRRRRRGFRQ
T1 sequence (P18089 whole entry): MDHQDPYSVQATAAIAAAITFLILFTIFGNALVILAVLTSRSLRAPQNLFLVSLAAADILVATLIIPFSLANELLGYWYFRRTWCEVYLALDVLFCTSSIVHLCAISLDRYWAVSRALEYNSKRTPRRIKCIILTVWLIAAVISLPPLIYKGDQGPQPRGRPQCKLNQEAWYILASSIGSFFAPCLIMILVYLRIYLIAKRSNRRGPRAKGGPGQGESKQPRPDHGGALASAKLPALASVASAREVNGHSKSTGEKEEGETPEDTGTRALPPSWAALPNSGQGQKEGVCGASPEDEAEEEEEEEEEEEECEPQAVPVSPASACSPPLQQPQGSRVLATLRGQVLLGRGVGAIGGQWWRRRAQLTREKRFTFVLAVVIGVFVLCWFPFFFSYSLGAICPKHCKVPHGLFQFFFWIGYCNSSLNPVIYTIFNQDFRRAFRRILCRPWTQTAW

[4] = biological target: Kappa-type opioid receptor (Homo sapiens, UniProt P41145); test: Binding affinity to Kappa opioid receptor (unknown origin)
Kappa-type opioid receptor, sequence (P41145 whole entry): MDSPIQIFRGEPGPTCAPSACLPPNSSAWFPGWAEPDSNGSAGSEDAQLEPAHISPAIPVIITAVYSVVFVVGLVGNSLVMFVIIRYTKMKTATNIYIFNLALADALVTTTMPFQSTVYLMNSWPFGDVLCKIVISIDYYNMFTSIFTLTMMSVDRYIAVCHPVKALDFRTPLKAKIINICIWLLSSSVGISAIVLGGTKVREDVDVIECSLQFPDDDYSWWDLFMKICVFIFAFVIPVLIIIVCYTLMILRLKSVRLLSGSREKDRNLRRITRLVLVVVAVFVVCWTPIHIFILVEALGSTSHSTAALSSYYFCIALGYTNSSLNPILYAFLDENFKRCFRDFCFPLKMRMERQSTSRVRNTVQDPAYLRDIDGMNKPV

Sigma non-opioid intracellular receptor 1, sequence (Q60492 whole entry): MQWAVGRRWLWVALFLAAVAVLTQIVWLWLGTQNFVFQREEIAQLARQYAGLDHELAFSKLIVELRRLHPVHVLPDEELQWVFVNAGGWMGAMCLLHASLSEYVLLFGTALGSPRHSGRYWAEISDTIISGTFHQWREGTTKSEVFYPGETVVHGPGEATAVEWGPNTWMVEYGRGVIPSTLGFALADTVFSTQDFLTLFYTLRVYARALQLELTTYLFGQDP

Row | SMILES | pKi [1] | pKi [2] | Ratio Ki (Cavia porcellus) | pKi (Histamine H1 receptor) | Ki [3] [nM] | pKi [4]
1 | CCCc1ccc2c(c1)sc(=O)n2CCCN1CCCCC1 | 8.92 | < 6.00 | > 1000 |  |  | 
2 | CCCc1ccc2c(c1)sc(=O)n2CCN1CCCCCC1 | 9.25 | < 6.00 | > 1000 | 6.51 | 205 | 
3 | CCCc1ccc2c(c1)sc(=O)n2CCCCN1CCCCC1 | 8.54 | 7.89 | 4.5 |  |  | 
4 | CCC(=O)c1ccc2c(c1)sc(=O)n2CCCN1CCCCC1 | 8.64 | 6.69 | 87 |  |  | 
5 | CCCc1ccc2c(c1)sc(=O)n2CCN1CCCCC1 | 9.22 | 7.74 | 30 |  |  | 
6 | O=C(c1ccc2c(c1)sc(=O)n2CCN1CCCCC1)C1CC1 | < 6.00 | < 6.00 |  |  |  | 
7 | CN(C[C@@H]1C[C@@]1(CO)c1ccccc1)C12CC3CC(CC(C3)C1)C2 (relative stereo) | 8.90 |  | 2 |  |  | 6.38
8 | CCCCc1ccc2c(c1)sc(=O)n2CCN1CCCCC1 | 8.43 | < 6.00 |  |  |  | 
9 | CCCc1ccc2c(c1)OCC(=O)N2CCN1CCCCC1 | 7.55 | < 6.00 |  |  |  | 
10 | CCC(=O)c1ccc2c(c1)oc(=O)n2CCCN1CCCCC1 | 8.07 | 6.30 | 58 |  |  | 
11 | CCCc1ccc2c(c1)sc(=O)n2CCN1C[C@]2(C)CCC[C@]2(C)C1 | 8.85 | < 6.00 |  |  |  | 
